Patent US11000033B2, “Ketone or oxime compound, and herbicide” (NISSAN CHEMICAL CORPORATION, priority 2014, dated 2021)

Tests used:
Assay type in all cases: in vivo
Lolium multiflorum Lam. = assay: Test Example 4: herbicidal effect by soil treatment (symbol K); conditions: application herbicide amount 320 g/ha
Outline: (§1)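 Seeds were sown in sterilized diluvial soil, covered with about 1.5 cm of soil, and the soil surface was sprayed with a water-diluted emulsion of the compound at a predetermined rate. Plants grew in a greenhouse at 25° C. to 30° C.; effects were scored visually 3 weeks after application.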

Setaria viridis = assay: Test Example 4: herbicidal effect by soil treatment (symbol G); conditions: application herbicide amount 320 g/ha
Outline: as §1

[1] = system: Echinochloa oryzacola Vasing.; assay: Test Example 2: herbicidal activity, application during weed generation in submerged conditions (symbol A); conditions: Table 23; application herbicide amount 320 g/ha; grade 0-5 by criteria of Test Example 1
Outline: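 Submerged alluvial soil (4 cm) sown with mixed seed; greenhouse 25–30° C. 1–2 leaf: diluted emulsion onto water surface, preset dose. Visual score, 3 wk.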

rapeseed = assay: Test Example 4: effect on crop by soil treatment (symbol g); conditions: application herbicide amount 320 g/ha
Outline: (§2)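 Grown at 25° C. to 30° C. in a greenhouse, the crops came from seed sown spot-wise in sterilized diluvial soil under roughly 1.5 cm of covering soil.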

Stellaria media = assay: Test Example 5: herbicidal effect by foliage application, plastic box (symbol P); conditions: 320 g/ha, 3 weeks after application
Outline: (§3)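 Seeds were sown in sterilized diluvial soil, covered with about 1.5 cm of soil and grown 14 days in a greenhouse at 25° C. to 30° C. An emulsifiable formulation diluted in water to a set rate was sprayed over foliage, and injury was scored 3 weeks later.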

[2] = system: Echinochloa crus-galli var. crus-galli; assay: Test Example 3: herbicidal effect by foliage application, Wagner pot (symbol H); conditions: application herbicide amount 320 g/ha
Outline: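 Steps: fill pot with alluvial soil; add water to 0.1–0.5 cm depth; sow weed and rice seed; grow 14 days at 25–30 °C; spray diluted emulsion over the leaves; rate effect after 3 weeks.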

[3] = system: directly sowed rice plant; assay: Test Example 3: effect on crop by foliage application, Wagner pot (symbol b); conditions: application herbicide amount 320 g/ha
Outline: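 Alluvial soil in a 1/10000-are Wagner pot was flooded to a water depth of 0.1–0.5 cm. Echinochloa crus-galli var. crus-galli, Leptochloa chinensis, Cyperus difformis and rice were sown into it and grown in a greenhouse at 25–30 °C.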

corn = assay: Test Example 4: effect on crop by soil treatment (symbol c); conditions: application herbicide amount 320 g/ha
Outline: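 Seeds were sown in spots on sterilized diluvial soil in a plastic box and covered with about 1.5 cm of soil. Plants were then grown in a greenhouse at 25° C. to 30° C.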

Avena fatua = assay: Test Example 5: herbicidal effect by foliage application, plastic box (symbol I); conditions: 320 g/ha, 3 weeks after application
Outline: as §3

soybean = assay: Test Example 4: effect on crop by soil treatment (symbol d); conditions: application herbicide amount 320 g/ha
Outline: as §2

wheat = assay: Test Example 5: effect on crop by foliage application, plastic box (symbol e); conditions: 320 g/ha, 3 weeks after application
Outline: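 In a plastic box 7 cm deep filled with sterilized diluvial soil, seeds of crops and weeds such as Digitaria ciliaris, Avena fatua and Amaranthus retroflexus are sown in spots and covered with about 1.5 cm of soil before greenhouse growth at 25–30° C.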

SMILES	K: Lolium multiflorum Lam., herbicidal effect grade (Lolium multiflorum Lam.)	G: Setaria viridis, herbicidal effect grade (Setaria viridis)	Herbicidal effect grade, A: Echinochloa oryzacola Vasing. [1]	g: rapeseed, effect on crop grade (rapeseed)	P: Stellaria media, herbicidal effect grade (Stellaria media)	herbicidal effect on H (Echinochloa crus-galli var. crus-galli), grade 0-5 [2]	effect on crop b (directly sowed rice plant), grade 0-5 [3]	c: corn, effect on crop grade (corn)	I: Avena fatua, herbicidal effect grade (Avena fatua)	d: soybean, effect on crop grade (soybean)	e: wheat, effect on crop grade (wheat)
CCOC(=O)C(C(=O)C(C)C)C1CC(O)=C(c2c(C)cc(C)cc2C)C1=O (stereo not shown) [2-009]	0 (Herbicidal ratio of 5% or lower (almost no effect))	0 (Herbicidal ratio of 5% or lower (almost no effect))	0 (Herbicidal ratio of 5% or lower (almost no effect))	0 (Herbicidal ratio of 5% or lower (almost no effect))	0 (Herbicidal ratio of 5% or lower (almost no effect))	3 (Herbicidal ratio of 40% or higher and lower than 70%)	1 (Herbicidal ratio of 5% or higher and lower than 20%)	0 (Herbicidal ratio of 5% or lower (almost no effect))	0 (Herbicidal ratio of 5% or lower (almost no effect))	0 (Herbicidal ratio of 5% or lower (almost no effect))	0 (Herbicidal ratio of 5% or lower (almost no effect))
CCOC(=O)C(C(=O)C(F)(F)F)C1CC(O)=C(c2c(C)cc(C)cc2C)C1=O (stereo not shown) [2-010]	0 (Herbicidal ratio of 5% or lower (almost no effect))	0 (Herbicidal ratio of 5% or lower (almost no effect))	0 (Herbicidal ratio of 5% or lower (almost no effect))	0 (Herbicidal ratio of 5% or lower (almost no effect))	0 (Herbicidal ratio of 5% or lower (almost no effect))	3 (Herbicidal ratio of 40% or higher and lower than 70%)	1 (Herbicidal ratio of 5% or higher and lower than 20%)	0 (Herbicidal ratio of 5% or lower (almost no effect))	0 (Herbicidal ratio of 5% or lower (almost no effect))	0 (Herbicidal ratio of 5% or lower (almost no effect))	0 (Herbicidal ratio of 5% or lower (almost no effect))
CCOC(=O)C(C(=O)Cc1ccccc1)C1CC(O)=C(c2c(C)cc(C)cc2C)C1=O (stereo not shown) [2-011]	0 (Herbicidal ratio of 5% or lower (almost no effect))	0 (Herbicidal ratio of 5% or lower (almost no effect))	0 (Herbicidal ratio of 5% or lower (almost no effect))	0 (Herbicidal ratio of 5% or lower (almost no effect))	0 (Herbicidal ratio of 5% or lower (almost no effect))	0 (Herbicidal ratio of 5% or lower (almost no effect))	0 (Herbicidal ratio of 5% or lower (almost no effect))	0 (Herbicidal ratio of 5% or lower (almost no effect))	0 (Herbicidal ratio of 5% or lower (almost no effect))	0 (Herbicidal ratio of 5% or lower (almost no effect))	0 (Herbicidal ratio of 5% or lower (almost no effect))
CCOC(=O)C(CC)(C(C)=O)C1CC(O)=C(c2c(C)cc(C)cc2C)C1=O (stereo not shown) [2-012]	0 (Herbicidal ratio of 5% or lower (almost no effect))	0 (Herbicidal ratio of 5% or lower (almost no effect))	0 (Herbicidal ratio of 5% or lower (almost no effect))	0 (Herbicidal ratio of 5% or lower (almost no effect))	0 (Herbicidal ratio of 5% or lower (almost no effect))	0 (Herbicidal ratio of 5% or lower (almost no effect))	0 (Herbicidal ratio of 5% or lower (almost no effect))	0 (Herbicidal ratio of 5% or lower (almost no effect))	0 (Herbicidal ratio of 5% or lower (almost no effect))	0 (Herbicidal ratio of 5% or lower (almost no effect))	0 (Herbicidal ratio of 5% or lower (almost no effect))
CCOC(=O)C(C(=O)c1ccccn1)C1CC(O)=C(c2c(C)cc(C)cc2C)C1=O (stereo not shown) [2-013]	1 (Herbicidal ratio of 5% or higher and lower than 20%)	1 (Herbicidal ratio of 5% or higher and lower than 20%)	0 (Herbicidal ratio of 5% or lower (almost no effect))	0 (Herbicidal ratio of 5% or lower (almost no effect))	1 (Herbicidal ratio of 5% or higher and lower than 20%)	0 (Herbicidal ratio of 5% or lower (almost no effect))	0 (Herbicidal ratio of 5% or lower (almost no effect))	0 (Herbicidal ratio of 5% or lower (almost no effect))	3 (Herbicidal ratio of 40% or higher and lower than 70%)	0 (Herbicidal ratio of 5% or lower (almost no effect))	0 (Herbicidal ratio of 5% or lower (almost no effect))
COC(=O)C(C(=O)C1CC1)C1CC(O)=C(c2c(C)cc(C)cc2C)C1=O (stereo not shown) [2-014]	4 (Herbicidal ratio of 70% or higher and lower than 90%)	5 (Herbicidal ratio of 90% or more (almost completely withered))	4 (Herbicidal ratio of 70% or higher and lower than 90%)	0 (Herbicidal ratio of 5% or lower (almost no effect))	0 (Herbicidal ratio of 5% or lower (almost no effect))	5 (Herbicidal ratio of 90% or more (almost completely withered))	5 (Herbicidal ratio of 90% or more (almost completely withered))	3 (Herbicidal ratio of 40% or higher and lower than 70%)	4 (Herbicidal ratio of 70% or higher and lower than 90%)	0 (Herbicidal ratio of 5% or lower (almost no effect))	0 (Herbicidal ratio of 5% or lower (almost no effect))
Cc1cc(C)c(C2=C(O)CC(CC(=O)Cc3ccccc3)C2=O)c(C)c1 (stereo not shown) [2-015]	5 (Herbicidal ratio of 90% or more (almost completely withered))	3 (Herbicidal ratio of 40% or higher and lower than 70%)	0 (Herbicidal ratio of 5% or lower (almost no effect))	0 (Herbicidal ratio of 5% or lower (almost no effect))	0 (Herbicidal ratio of 5% or lower (almost no effect))	1 (Herbicidal ratio of 5% or higher and lower than 20%)	4 (Herbicidal ratio of 70% or higher and lower than 90%)	0 (Herbicidal ratio of 5% or lower (almost no effect))	4 (Herbicidal ratio of 70% or higher and lower than 90%)	0 (Herbicidal ratio of 5% or lower (almost no effect))	0 (Herbicidal ratio of 5% or lower (almost no effect))
Cc1cc(C)c(C2=C(O)CC(CC(=O)C(C)C)C2=O)c(C)c1 (stereo not shown) [2-016]	5 (Herbicidal ratio of 90% or more (almost completely withered))	5 (Herbicidal ratio of 90% or more (almost completely withered))	4 (Herbicidal ratio of 70% or higher and lower than 90%)	2 (Herbicidal ratio of 20% or higher and lower than 40%)	0 (Herbicidal ratio of 5% or lower (almost no effect))	5 (Herbicidal ratio of 90% or more (almost completely withered))	5 (Herbicidal ratio of 90% or more (almost completely withered))	3 (Herbicidal ratio of 40% or higher and lower than 70%)	4 (Herbicidal ratio of 70% or higher and lower than 90%)	0 (Herbicidal ratio of 5% or lower (almost no effect))	0 (Herbicidal ratio of 5% or lower (almost no effect))
